Test results published in patent US20220054595A1, “Formulation Including a Combination of beta-Endorphin and Adrenocorticotropic Hormone” (Adamis Pharmaceuticals Corporation, priority 2019, published 2022).

Assays:
[1] = test system: EAE induced in SJL mice by PLP139-151/CFA immunization; assay: EAE in SJL mice: histological and immunohistological analyses; assay type: in vivo, mouse
Experimental: (§1) The effect of administration of two dosages of ACTH and β-endorphin on severity and relapse in EAE was evaluated. EAE was induced in SJL mice by PLP139-151/CFA immunization on Day 0. Treatment was late therapeutic, starting on Day 20 after immunization for each mouse. Mice were observed through the end of the study, Day 42 after immunization. Four groups of 20 mice each received one of the following treatments: vehicle (a negative control); 10 mg/kg oral prednisolone daily (reference treatment); 32 μg ACTH+16 μg endorphin by subcutaneous injection, every 2nd day (low dose); or 64 μg ACTH+32 μg β-endorphin by subcutaneous injection, every 2nd day (high dose).
Treatment started on the day of group assignment (Day 20 after immunization). This was the time of the expected end of the first wave of EAE and before relapses were expected to begin. Treatment continued through Day 41. EAE score was determined daily by a person unaware of both treatment and of previous scores for each mouse. Weight was measured 3 times a week. Five mice in each group were euthanized on day 30 and the fifteen remaining mice euthanized at the end of the study (Day 42). Histological and immunohistological analyses were performed on tissue collected from the euthanized mice.

[2] = test system: EAE induced in SJL mice by PLP139-151/CFA immunization; assay: EAE in SJL mice, late therapeutic treatment: clinical findings; assay type: in vivo, mouse
Experimental: as §1
Mice were injected subcutaneously at four sites in the back with emulsion containing PLP139-151 (native sequence) from HOOKE KIT™ PLP139-151/CFA Emulsion, catalog number EK-0120 (Hooke Laboratories, Lawrence Mass.). Two sites of injection were in the upper back approximately 1 cm caudal of the neck line. The other two sites were in the lower back approximately 2 cm cranial of the base of the tail. The injection volume was 0.05 mL at each site. Even without treatment, most mice recover spontaneously after the first wave of disease. In the SJL model, EAE develops 10-15 days after immunization in 90-100% of immunized mice. The first wave of EAE lasts several days and most mice fully or almost fully recover from this first wave. After a disease-free period, which can last from one day to several months, most mice relapse. During the first 5-7 weeks after immunization, 50-100% of mice will develop a relapse. Each wave of paralysis results in body weight loss at onset, most of which is regained at recovery from the wave. The greatest weight loss is during the first wave of EAE. During the chronic phase of disease, the average EAE body weight is relatively stable, with normal slow increase with age. Since individual mice experience relapses at different times, only a few mice in each group are acutely sick at any given time after the first wave of EAE. Therefore, significant differences in relative body weight between groups are often not found after the first wave of disease in this model. In the vehicle treated group, disease developed as expected for this model. Five (5) mice were euthanized on Day 30 for analysis. Relapse occurred in 7 out of the 15 remaining mice, which were followed to Day 42, with typical course and severity of disease.
100 EAE induced mice were initially considered a single group and were scored daily starting on Day 9 after immunization. On Day 20, mice were assigned to the experimental groups in a balanced manner to achieve groups with similar times of EAE onset, similar maximum EAE score and similar scores at the time of enrollment into treatment (see Table 2). The remaining mice, which developed EAE last, or which developed unusual signs of EAE such as head tilting, were not assigned to any treatment group. […]
Treatment started on the day of group assignment (Day 20 after immunization). […] EAE score was determined daily by a person unaware of both treatment and of previous scores for each mouse. Weight was measured 3 times a week. […]

[3] = test system: acute epileptic extensor spasms (AEES) in Ts65Dn mouse; details: GABABR agonist-treated Ts65Dn mouse; cited from earlier work

Row | Compound | Demyelination (anti-MBP) ± SD ([1]; anti-myelin basic protein staining score 0-5) | GFAP ± SD (% of area) ([1]; gliosis, % of total spinal cord area) | lba1 ± SD (% of area) ([1]; microglial activation, % of total spinal cord area) | Demyelination, anti-myelin basic protein staining score versus vehicle (in words) ([1]; mouse, in vivo) | Gliosis (scarring), area of anti-GFAP staining versus vehicle (in words) ([1]; mouse, in vivo) | Inflammation and inflammatory infiltrates, number of inflammatory foci versus vehicle (in words) ([1]; mouse, in vivo) | Inflammatory foci/section ± SD ([1]; spinal cord histology of euthanized mice) | End score ± SD ([2]; EAE score (scale 0-5) at end of study, mice followed until Day 42) | Body weight change versus vehicle control (in words) ([2]; end of study) | MMS of relapse period ± SD (Days 25-42) ([2]; mean maximal EAE score (scale 0-5), mice followed until Day 42, all mice in the group) | Incidence of relapse ([2]; mice followed until Day 42, treatment Day 20-41, mice that relapsed as proportion of surviving mice that developed first wave of EAE) | End % body weight ± SD ([2]; relative body weight at end of study, mice followed until Day 42) | Reduction of AEES [3]
1 | C[C@]12C=CC(=O)C=C1CC[C@@H]1[C@@H]2[C@@H](O)C[C@@]2(C)[C@H]1CC[C@]2(O)C(=O)CO [Prednisolone, prednisolone] | 0.9 ± 0.6 | 13.3 ± 2.0 % of area | 4.0 ± 1.2 % of area | only at best a trend to reduction | a higher level of gliosis | only at best a trend to reduction | 3.8 ± 2.4 foci/section | 1.47 ± 1.04 | statistically significant loss of weight versus the vehicle control | 2.07 ± 1.10 | 33.3% | 88.6% ± 9.3% | 
2 | Rodent ACTH: murine ACTH, SEQ ID NO: 9, SYSMEHFRWGKPVGKKRRPVKVYPNVAENESAEAFPLEF (listed as Mus musculus) |  |  |  |  |  |  |  |  |  |  |  |  | can significantly reduce AEES
